Measured values taken from ChEMBL document CHEMBL5728544, “Compounds and methods for the targeted degradation of interleukin-1 receptor- associated kinase 4 polypeptides” (2021).

Molecular target: T1, Interleukin-1 receptor-associated kinase 4 (Homo sapiens, UniProt Q9NWZ3)
T1 sequence (Q9NWZ3 whole entry): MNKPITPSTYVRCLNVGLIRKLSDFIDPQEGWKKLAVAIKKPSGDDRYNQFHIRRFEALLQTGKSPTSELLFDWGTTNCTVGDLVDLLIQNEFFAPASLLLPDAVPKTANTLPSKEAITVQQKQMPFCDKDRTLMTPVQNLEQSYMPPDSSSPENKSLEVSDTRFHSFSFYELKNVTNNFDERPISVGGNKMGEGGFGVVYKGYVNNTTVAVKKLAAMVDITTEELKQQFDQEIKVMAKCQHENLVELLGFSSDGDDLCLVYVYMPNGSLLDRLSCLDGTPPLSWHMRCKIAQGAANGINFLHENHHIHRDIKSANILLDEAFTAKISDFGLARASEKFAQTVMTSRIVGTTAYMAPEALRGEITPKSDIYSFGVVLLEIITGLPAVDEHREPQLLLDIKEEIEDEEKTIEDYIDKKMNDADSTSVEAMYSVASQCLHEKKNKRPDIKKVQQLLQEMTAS
Assay: Biochemical Assay: A Z′-Lyte assay based on a fluorescence resonance energy transfer (FRET) readout was developed for measuring IRAK4-dependent phosphorylation of a FRET-peptide substrate as described by Thermo Fisher Scientific (Grand Island, N.Y.). At a starting concentration of 1.5 mM, the identified compounds were serially diluted with 100% dimethyl sulfoxide (DMSO) in 3-fold increments, into Greiner bio-one 96-well plates (cat. #: 650201, Greiner bio-one, Monroe, N.C.). Compounds were then transferred to intermediate Greiner bio-one 96-well plates and diluted 10-fold with Kinase assay buffer (25 mM HEPES, pH 7.5, 10 mM MgCl2, 10 mM MnCl2, 1 mM EGTA, and 0.01% Brij-35, 2 mM DTT). Three μL of the serially diluted compounds were then transferred in duplicate to low-volume 384-well black proxiplates (cat. #: 6008269; Perkin Elmer, Akron, Ohio), to give duplicate twelve-point concentration curves. Six μl of a 2.5× solution of IRAK4 enzyme (cat #: 40064, BPS Bioscience, San Diego, Calif.) in kinase buffer was added to each well, followed by a 10 minutes pre-incubation step. Reactions were initiated by adding 6 μl of a 2.5× substrate mix of ATP and Z′-Lyte Ser/Thr 7 peptide (cat. #: PV3180, Thermo Fisher Scientific, Grand Island, N.Y.) and proceeded at room temperature for 1 hour. […]

IC50: < 30 nM
SMILES: O=C1CCC(N2C(=O)c3ccc(OC4CCC(CN5CCN(Cc6ccc7c(c6)nc(NC(=O)c6cccc(C(F)(F)F)c6)n7C6CCC(CO)CC6)CC5)CC4)cc3C2=O)C(=O)N1 (stereo unspecified)
